Some targets named below: BUB1 (human) (UniProt O43683); NEK10 (human) (UniProt Q6ZWH5); SGK1 (human) (UniProt O00141); WNK1 (human) (UniProt Q9H4A3).
What all share (test): KINOMEscan competition binding
Common to all, as to conditions: compound 10.0 µM

The subject of test [1] is ABL1 (human), P00519 [F317I].
Test [2] deals with ABL1 (human), P00519 [F317L].

Drawing on the kinase profiling compilation of Christmann-Franck et al. (2016), this text covers kinase still bound, per cent of control for seven compounds.

SGK1 (human), sequence (O00141 whole entry, looked up): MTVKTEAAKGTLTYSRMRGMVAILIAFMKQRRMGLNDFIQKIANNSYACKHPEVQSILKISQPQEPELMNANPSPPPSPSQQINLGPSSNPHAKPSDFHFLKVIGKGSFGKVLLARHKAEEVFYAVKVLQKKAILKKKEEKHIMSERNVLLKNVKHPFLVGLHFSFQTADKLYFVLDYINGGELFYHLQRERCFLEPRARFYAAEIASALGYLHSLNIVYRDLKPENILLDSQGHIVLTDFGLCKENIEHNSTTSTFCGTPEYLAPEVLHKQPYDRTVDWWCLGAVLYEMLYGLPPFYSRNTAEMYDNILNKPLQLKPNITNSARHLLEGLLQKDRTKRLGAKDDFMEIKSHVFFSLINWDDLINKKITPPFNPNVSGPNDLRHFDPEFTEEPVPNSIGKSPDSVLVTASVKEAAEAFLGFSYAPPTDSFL
ABL1 (human), P00519 [F317I], sequence (P00519 whole entry F317I, looked up): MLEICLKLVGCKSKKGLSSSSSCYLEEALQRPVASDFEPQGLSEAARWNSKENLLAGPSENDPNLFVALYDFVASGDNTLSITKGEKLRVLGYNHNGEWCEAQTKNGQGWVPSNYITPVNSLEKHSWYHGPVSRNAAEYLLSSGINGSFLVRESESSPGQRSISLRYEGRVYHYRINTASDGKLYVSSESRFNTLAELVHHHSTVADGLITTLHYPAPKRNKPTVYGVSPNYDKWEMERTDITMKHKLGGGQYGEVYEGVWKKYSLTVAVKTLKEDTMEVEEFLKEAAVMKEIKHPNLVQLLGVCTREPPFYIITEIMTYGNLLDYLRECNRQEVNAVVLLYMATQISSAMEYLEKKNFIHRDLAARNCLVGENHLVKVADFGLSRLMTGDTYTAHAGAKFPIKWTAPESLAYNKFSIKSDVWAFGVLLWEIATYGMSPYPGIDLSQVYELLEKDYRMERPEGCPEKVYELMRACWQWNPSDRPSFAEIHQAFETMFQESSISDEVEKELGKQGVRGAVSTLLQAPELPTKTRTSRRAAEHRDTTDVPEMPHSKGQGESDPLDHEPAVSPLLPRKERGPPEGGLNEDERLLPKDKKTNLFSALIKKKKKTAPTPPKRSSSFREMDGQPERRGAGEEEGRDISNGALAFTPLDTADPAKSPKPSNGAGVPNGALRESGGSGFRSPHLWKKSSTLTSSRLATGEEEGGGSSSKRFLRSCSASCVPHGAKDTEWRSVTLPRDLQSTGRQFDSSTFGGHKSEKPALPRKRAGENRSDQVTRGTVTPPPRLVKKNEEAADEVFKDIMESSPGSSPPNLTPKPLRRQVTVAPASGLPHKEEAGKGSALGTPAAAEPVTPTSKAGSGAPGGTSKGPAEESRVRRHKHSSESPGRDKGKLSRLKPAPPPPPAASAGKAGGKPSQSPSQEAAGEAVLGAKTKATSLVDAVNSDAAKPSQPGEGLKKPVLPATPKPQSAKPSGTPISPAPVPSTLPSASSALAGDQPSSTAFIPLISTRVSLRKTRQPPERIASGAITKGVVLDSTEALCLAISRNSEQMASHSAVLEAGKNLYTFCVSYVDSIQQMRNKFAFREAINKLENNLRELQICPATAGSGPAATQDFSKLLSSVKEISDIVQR
BUB1 (human), sequence (O43683 whole entry, looked up): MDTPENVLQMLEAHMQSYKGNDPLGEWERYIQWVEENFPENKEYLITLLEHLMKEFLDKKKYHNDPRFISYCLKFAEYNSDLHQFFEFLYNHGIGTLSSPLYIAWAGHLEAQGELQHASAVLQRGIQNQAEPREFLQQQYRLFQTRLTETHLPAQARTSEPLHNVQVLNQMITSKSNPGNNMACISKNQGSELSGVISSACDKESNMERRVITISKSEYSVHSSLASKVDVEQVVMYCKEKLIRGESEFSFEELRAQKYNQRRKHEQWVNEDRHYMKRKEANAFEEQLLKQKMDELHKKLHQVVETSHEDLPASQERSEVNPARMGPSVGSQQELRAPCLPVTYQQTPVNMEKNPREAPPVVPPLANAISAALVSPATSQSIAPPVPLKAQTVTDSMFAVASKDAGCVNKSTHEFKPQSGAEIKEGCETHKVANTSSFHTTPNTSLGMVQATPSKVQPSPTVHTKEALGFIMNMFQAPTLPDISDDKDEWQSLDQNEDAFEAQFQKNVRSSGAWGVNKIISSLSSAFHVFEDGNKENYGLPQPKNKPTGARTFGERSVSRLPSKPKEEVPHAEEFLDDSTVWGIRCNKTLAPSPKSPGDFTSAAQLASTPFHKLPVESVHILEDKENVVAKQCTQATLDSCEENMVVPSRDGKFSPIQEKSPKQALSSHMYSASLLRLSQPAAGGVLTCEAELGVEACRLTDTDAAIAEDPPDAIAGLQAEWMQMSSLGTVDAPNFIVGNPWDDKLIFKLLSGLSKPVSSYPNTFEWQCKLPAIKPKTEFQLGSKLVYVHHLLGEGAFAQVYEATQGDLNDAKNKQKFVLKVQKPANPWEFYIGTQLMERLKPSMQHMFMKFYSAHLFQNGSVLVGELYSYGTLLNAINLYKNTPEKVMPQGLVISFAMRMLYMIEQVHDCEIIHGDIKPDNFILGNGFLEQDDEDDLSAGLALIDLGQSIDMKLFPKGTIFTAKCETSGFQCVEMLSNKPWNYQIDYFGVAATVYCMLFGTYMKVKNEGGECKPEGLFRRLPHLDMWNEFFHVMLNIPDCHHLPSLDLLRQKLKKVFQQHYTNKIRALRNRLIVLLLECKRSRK
WNK1 (human), sequence (Q9H4A3 whole entry, looked up): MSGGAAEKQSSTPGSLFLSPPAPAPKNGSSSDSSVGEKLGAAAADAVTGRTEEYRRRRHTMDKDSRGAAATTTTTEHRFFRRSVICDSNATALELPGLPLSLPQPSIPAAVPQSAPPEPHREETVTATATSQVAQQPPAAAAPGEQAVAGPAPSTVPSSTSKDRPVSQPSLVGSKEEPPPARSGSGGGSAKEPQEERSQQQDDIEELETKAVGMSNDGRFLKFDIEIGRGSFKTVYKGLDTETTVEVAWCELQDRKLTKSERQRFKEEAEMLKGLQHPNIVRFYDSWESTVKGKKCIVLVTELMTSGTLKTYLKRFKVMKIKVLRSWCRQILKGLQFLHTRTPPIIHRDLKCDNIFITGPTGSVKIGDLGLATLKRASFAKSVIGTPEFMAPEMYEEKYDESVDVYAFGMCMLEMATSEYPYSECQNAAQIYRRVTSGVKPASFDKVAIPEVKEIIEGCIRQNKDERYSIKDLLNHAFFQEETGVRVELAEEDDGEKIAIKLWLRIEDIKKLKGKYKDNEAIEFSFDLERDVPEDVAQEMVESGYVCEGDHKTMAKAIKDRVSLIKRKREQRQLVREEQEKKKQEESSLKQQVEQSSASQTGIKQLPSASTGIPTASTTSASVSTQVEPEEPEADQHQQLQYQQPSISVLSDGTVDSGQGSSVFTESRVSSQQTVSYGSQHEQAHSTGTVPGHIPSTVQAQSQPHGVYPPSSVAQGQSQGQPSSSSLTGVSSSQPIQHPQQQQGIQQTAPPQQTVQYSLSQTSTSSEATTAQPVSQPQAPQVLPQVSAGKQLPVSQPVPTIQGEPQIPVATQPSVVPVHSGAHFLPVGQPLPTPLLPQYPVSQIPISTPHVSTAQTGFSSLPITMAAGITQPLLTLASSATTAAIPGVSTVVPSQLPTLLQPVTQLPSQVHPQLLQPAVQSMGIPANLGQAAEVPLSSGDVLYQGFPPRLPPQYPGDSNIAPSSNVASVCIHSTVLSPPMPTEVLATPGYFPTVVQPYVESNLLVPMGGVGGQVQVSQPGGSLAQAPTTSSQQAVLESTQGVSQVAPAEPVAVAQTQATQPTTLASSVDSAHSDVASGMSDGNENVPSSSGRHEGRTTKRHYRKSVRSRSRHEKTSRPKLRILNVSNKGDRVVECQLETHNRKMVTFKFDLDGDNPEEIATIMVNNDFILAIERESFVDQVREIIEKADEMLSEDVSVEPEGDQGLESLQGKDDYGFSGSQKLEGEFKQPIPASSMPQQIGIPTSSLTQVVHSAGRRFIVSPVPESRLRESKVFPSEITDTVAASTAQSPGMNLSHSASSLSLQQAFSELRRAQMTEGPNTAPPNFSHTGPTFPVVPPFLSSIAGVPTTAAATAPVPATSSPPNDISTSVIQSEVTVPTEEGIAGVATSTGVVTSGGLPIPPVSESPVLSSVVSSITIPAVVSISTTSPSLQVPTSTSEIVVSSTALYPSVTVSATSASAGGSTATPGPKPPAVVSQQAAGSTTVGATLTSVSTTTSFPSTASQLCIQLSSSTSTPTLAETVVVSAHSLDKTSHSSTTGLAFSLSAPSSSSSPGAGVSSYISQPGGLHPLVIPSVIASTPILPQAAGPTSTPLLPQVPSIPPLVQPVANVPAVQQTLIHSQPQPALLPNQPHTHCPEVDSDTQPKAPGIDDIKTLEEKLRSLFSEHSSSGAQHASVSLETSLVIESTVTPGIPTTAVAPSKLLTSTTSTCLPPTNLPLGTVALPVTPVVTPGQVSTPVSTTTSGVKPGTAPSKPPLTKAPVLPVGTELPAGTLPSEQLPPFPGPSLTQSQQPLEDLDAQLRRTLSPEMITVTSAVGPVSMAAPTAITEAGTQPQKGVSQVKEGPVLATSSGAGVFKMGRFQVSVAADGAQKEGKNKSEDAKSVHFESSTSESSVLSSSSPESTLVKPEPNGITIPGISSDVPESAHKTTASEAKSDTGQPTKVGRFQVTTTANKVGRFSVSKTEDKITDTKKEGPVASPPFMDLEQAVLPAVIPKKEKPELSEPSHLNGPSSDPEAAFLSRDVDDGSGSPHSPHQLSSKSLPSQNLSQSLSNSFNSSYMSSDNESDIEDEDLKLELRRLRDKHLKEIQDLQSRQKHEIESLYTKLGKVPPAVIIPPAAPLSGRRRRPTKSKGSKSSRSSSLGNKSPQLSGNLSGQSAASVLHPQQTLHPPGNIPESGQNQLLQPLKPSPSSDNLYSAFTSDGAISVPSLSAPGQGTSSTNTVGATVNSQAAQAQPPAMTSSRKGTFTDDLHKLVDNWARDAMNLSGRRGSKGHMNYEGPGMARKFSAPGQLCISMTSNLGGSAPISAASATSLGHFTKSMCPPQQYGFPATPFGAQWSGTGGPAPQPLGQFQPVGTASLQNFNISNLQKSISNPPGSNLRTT
ABL1 (human), P00519 [F317L], sequence (P00519 whole entry F317L, looked up): as the sequence (P00519 whole entry F317I, looked up) above, with I317L counted along it

`O=c1[nH]c2ccccc2n1C1CCN(Cc2ccc(-c3nc4cc5[nH]cnc5cc4nc3-c3ccccc3)cc2)CC1`: the kinase still bound, per cent of control at BUB1 (human) was 64%; on NEK10 (human), 78%; at SGK1 (human), 71%; on WNK1 (human), 89%.

Turning to `CNC(=O)Nc1ccc(-c2nc(N3CC4CCC(C3)O4)c3cnn(C4CCC5(CC4)OCCO5)c3n2)cc1`, the figures for the kinase still bound, per cent of control on BUB1 (human), on SGK1 (human) and at WNK1 (human) were 52%, 100% and 95%, respectively.

On to `Cc1cn(-c2cc(C(=O)Nc3ccc(C)c(NC(=O)c4ccno4)c3)cc(C(F)(F)F)c2)cn1`, for which the kinase still bound, per cent of control in test [1] came to 0.95%; in test [2] it was 1.4%.

In the case of `COc1cc(N2CCC(C(N)=O)CC2)ccc1Nc1nc(N)c(Cl)c(Nc2ccccc2S(=O)(=O)C(C)C)n1`, the kinase still bound, per cent of control came to 4.8% in test [1] and 12% in test [2].

Regarding `CCOc1cc(N2CCC(O)CC2)ccc1Nc1ncc2c(n1)N(C)c1ccccc1C(=O)N2C`, the kinase still bound, per cent of control in test [1] is 30%; in test [2] it was 100%.

Take `COc1cc2ncnc(Nc3cccc(Cl)c3)c2cc1OC`: the kinase still bound, per cent of control on BUB1 (human) came to 0.3%; at NEK10 (human) it was 91%; at SGK1 (human), 68%; on WNK1 (human) it was 71%.

As for `COc1cc(C)c(Sc2cnc(NC(=O)c3ccc(CNC(C)C(C)C)cc3)s2)cc1C(=O)N1CCN(C(C)=O)CC1` (centres undefined), the kinase still bound, per cent of control in test [1] and in test [2] was 100% each time.
